Test results from PubChem BioAssay AID274 (DTP/NCI, 2004).
“And” between values parts separate entries of the source, which are not always exact repeats. Equal entries are not always repeated. Toxic doses and inconclusive results are not listed. How the source made its calls: active means survival T/C of 150% or more; inactive means T/C below 125% in these data.

System: BDF1 mice, Lewis lung carcinoma iv, survival T/C
Test: NCI In Vivo Anticancer Drug Screen. Data for tumor model Lewis Lung Carcinoma (intravenous) in B6D2F1 (BDF1) mice
Conditions: endpoint: median survival time, higher = longer survival
Method: The antitumor activity of compounds was measured in mice bearing transplantable tumors. Survival or tumor size were measured and the results are expressed as the measurement made in the treated group (T) divided by the measurement made in the vehicle treated control group (C). The tumor model used in this assay is Lewis Lung Carcinoma (intravenous) in B6D2F1 (BDF1) mice

Measured: T/C

OCCCN1CCCCC1CO (centres undefined)
inactive: dose: 12.5 mg/kg/injection, schedule: Q01DX009 (ip), vehicle: saline 100 % of control and 107 % of control | dose: 25.0 mg/kg/injection, schedule: Q01DX009 (ip), vehicle: saline 98 % of control and 110 % of control | dose: 50.0 mg/kg/injection, schedule: Q01DX009 (ip), vehicle: saline 97 % of control and 90 % of control | dose: 100.0 mg/kg/injection, schedule: Q01DX009 (ip), vehicle: saline 91 % of control and 106 % of control | dose: 200.0 mg/kg/injection, schedule: Q01DX009 (ip), vehicle: saline 100 % of control and 107 % of control | dose: 400.0 mg/kg/injection, schedule: Q01DX009 (ip), vehicle: saline 95 % of control and 110 % of control

CCN1C[C@]2(COC)[C@H](O)C[C@H](OC)[C@]34C1[C@H]([C@H](OC)[C@H]23)[C@]1(OC(C)=O)[C@H]2[C@@H](OC(=O)c3ccccc3)[C@](O)(C[C@H]24)[C@@H](OC)[C@@H]1O
inactive: dose: 0.03 mg/kg/injection, schedule: Q01DX009 (ip), vehicle: Klucel (hydroxypropylcellulose) (HPC) 108 % of control | dose: 0.06 mg/kg/injection, schedule: Q01DX009 (ip), vehicle: Klucel (hydroxypropylcellulose) (HPC) 107 % of control | dose: 0.13 mg/kg/injection, schedule: Q01DX009 (ip), vehicle: Klucel (hydroxypropylcellulose) (HPC) 99 % of control

O=S(=O)(c1ccc(NC(C(O)C(O)C(O)C(O)CO)S(=O)(=O)O)cc1)c1ccc(NC(C(O)C(O)C(O)C(O)CO)S(=O)(=O)O)cc1 (centres undefined)
inactive: dose: 72.0 mg/kg/injection, schedule: Q01DX007 (ip), vehicle: saline 90 % of control | dose: 102.9 mg/kg/injection, schedule: Q01DX007 (ip), vehicle: saline 95 % of control | dose: 147.0 mg/kg/injection, schedule: Q01DX007 (ip), vehicle: saline 86 % of control | dose: 210.0 mg/kg/injection, schedule: Q01DX007 (ip), vehicle: saline 96 % of control | dose: 300.0 mg/kg/injection, schedule: Q01DX007 (ip), vehicle: saline 94 % of control

CC(C)(C)C1CCCCC1
inactive: dose: 12.5 mg/kg/injection, schedule: Q01DX009 (ip), vehicle: Klucel (hydroxypropylcellulose) (HPC) 94 % of control | dose: 25.0 mg/kg/injection, schedule: Q01DX009 (ip), vehicle: Klucel (hydroxypropylcellulose) (HPC) 98 % of control | dose: 50.0 mg/kg/injection, schedule: Q01DX009 (ip), vehicle: Klucel (hydroxypropylcellulose) (HPC) 95 % of control | dose: 100.0 mg/kg/injection, schedule: Q01DX009 (ip), vehicle: Klucel (hydroxypropylcellulose) (HPC) 102 % of control | dose: 200.0 mg/kg/injection, schedule: Q01DX009 (ip), vehicle: Klucel (hydroxypropylcellulose) (HPC) 95 % of control

CC1OC(=O)C(C(C)C)NC(=O)C(C(C)C)OC(=O)C(C(C)C)NC(=O)C(C)OC(=O)C(C(C)C)NC(=O)C(C(C)C)OC(=O)C(C(C)C)NC(=O)C(C)OC(=O)C(C(C)C)NC(=O)C(C(C)C)OC(=O)C(C(C)C)NC1=O (centres undefined)
inactive: dose: 1.25 mg/kg/injection, schedule: Q01DX009 (ip), vehicle: saline with Tween-80 94 % of control | dose: 2.5 mg/kg/injection, schedule: Q01DX009 (ip), vehicle: saline with Tween-80 102 % of control | dose: 5.0 mg/kg/injection, schedule: Q01DX009 (ip), vehicle: saline with Tween-80 98 % of control | dose: 10.0 mg/kg/injection, schedule: Q01DX009 (ip), vehicle: saline with Tween-80 102 % of control | dose: 20.0 mg/kg/injection, schedule: Q01DX009 (ip), vehicle: saline with Tween-80 89 % of control | dose: 40.0 mg/kg/injection, schedule: Q01DX009 (ip), vehicle: saline with Tween-80 89 % of control

COC(=O)Nc1cccc(-c2nc3ccc(NC(=O)OC)cc3c(=O)n2-c2ccccc2)c1
inactive: dose: 8.0 mg/kg/injection, schedule: Q01DX009 (ip), vehicle: Klucel (hydroxypropylcellulose) (HPC) 95 % of control | dose: 8.0 mg/kg/injection, schedule: Q01DX009 (ip), vehicle: saline 92 % of control | dose: 16.0 mg/kg/injection, schedule: Q01DX009 (ip), vehicle: Klucel (hydroxypropylcellulose) (HPC) 92 % of control | dose: 16.0 mg/kg/injection, schedule: Q01DX009 (ip), vehicle: saline 97 % of control | dose: 32.0 mg/kg/injection, schedule: Q01DX009 (ip), vehicle: Klucel (hydroxypropylcellulose) (HPC) 99 % of control | dose: 32.0 mg/kg/injection, schedule: Q01DX009 (ip), vehicle: saline 109 % of control | dose: 64.0 mg/kg/injection, schedule: Q01DX009 (ip), vehicle: Klucel (hydroxypropylcellulose) (HPC) 109 % of control | dose: 64.0 mg/kg/injection, schedule: Q01DX009 (ip), vehicle: saline 108 % of control | dose: 128.0 mg/kg/injection, schedule: Q01DX009 (ip), vehicle: saline 115 % of control

Cc1ccc2c(c1)C(=O)N(CC[P+](c1ccccc1)(c1ccccc1)c1ccccc1)C2=O
inactive: dose: 0.78 mg/kg/injection, schedule: Q09DX009 (ip), vehicle: water 98 % of control | dose: 1.56 mg/kg/injection, schedule: Q09DX009 (ip), vehicle: water 89 % of control | dose: 3.12 mg/kg/injection, schedule: Q09DX009 (ip), vehicle: water 89 % of control | dose: 6.25 mg/kg/injection, schedule: Q09DX009 (ip), vehicle: water 87 % of control | dose: 12.5 mg/kg/injection, schedule: Q09DX009 (ip), vehicle: water 97 % of control
